Data reported in US20210395651A1, “COMPOUNDS STABILIZING HYDROLASES IN LIQUIDS” (BASF SE, priority 2018, published 2021).

Molecular target: T1, Lipolase® 100L (Thermomyces lanuginosus, UniProt O59952)
T1 construct: purchased Sigma-Aldrich
T1 sequence (O59952 23-291): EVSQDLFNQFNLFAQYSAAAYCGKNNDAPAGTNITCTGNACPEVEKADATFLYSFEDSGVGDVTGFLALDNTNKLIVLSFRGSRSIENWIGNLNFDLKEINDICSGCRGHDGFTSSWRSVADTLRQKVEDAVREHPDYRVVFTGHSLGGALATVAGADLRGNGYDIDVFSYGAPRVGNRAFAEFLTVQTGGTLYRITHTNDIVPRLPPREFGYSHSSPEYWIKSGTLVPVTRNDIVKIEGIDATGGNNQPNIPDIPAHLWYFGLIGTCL
Assay: Lipase storage stability in liquid formulations at 37° C. (pNP-valerate activity)
Format: biochemical, Thermomyces lanuginosa
Conditions: for lipase activity, 3 d: 3 d storage at 37° C.; for lipase activity, 7 d: 7 d storage at 37° C.; for lipase activity, 14 d: 14 d storage at 37° C.; for lipase activity, 21 d: 21 d storage at 37° C.; for lipase activity, 28 d: 28 d storage at 37° C.; for lipase activity, 35 d: 35 d storage at 37° C.; for lipase activity, T0: relative to 100% value of reference formulation at time 0
Method: The storage stability of Lipase was assessed at 37° C.
Base test formulations were manufactured by making base formulations I to V by mixing the components according to Table 1.
The respective component (a) or comparative compound was added, if applicable, to the respective base formulation in amounts as indicated in Table 1.
Lipase used: Lipolase® 100L (CAS-No. 9001-62-1, EC-No. 232-619-9) was purchased from Sigma-Aldrich.
The amount of lipase as provided in Table 1 refers to active protein.
Water was added to accomplish the balance to 100.
Lipolase activity at certain points in time as indicated in Table 2 was be determined by employing pNitrophenol-valerate (2.4 mM pNP-C5 in 100 mM Tris pH 8.0, 0.01% Triton X100) as a substrate. The absorption at 405 nm was measured at 20° C. every 30 seconds over 5 minutes.
The slope (absorbance increase at 405 nm per minute) of the time dependent absorption-curve is directly proportional to the activity of the lipase.
The […] activity values provided in Table 2 were calculated referring to the 100% value determined in the reference formulation at the time 0.
The nomenclature of formulations is as follows: the Roman number before the full stop characterizes the base formulation, the Arabian number the type of compound (A.# compound according to invention (component (a)); (B.#) comparative compound).

[1] = base formulation I. (Lipolase 0.2 wt%, tested compound 2.5 wt%)
[2] = base formulation III. (Lipolase 0.2 wt%, tested compound 2.0 wt%)
[3] = base formulation IV. (Lipolase 0.2 wt%, tested compound 2.0 wt%)
[4] = base formulation V. (Lipolase 0.2 wt%, tested compound 2.0 wt%)
[5] = base formulation II. (Lipolase 0.2 wt%, tested compound 2.5 wt%)

**Q.** For O=C(O)CC(O)(CC(=O)O)C(=O)O [B.1, citric acid, reference compound], which “lipase activity, 3 d” value [1] is on record?
**A.** 89%

**Q.** What about the “lipase activity, 7 d” value [1] of the same compound?
**A.** 81%

**Q.** What about the “lipase activity, 14 d” value [1] of the same compound?
**A.** 73%

**Q.** And the “lipase activity, 21 d” value [1]?
**A.** 61%

**Q.** And the “lipase activity, 28 d” value [1]?
**A.** 50%

**Q.** And the “lipase activity, 35 d” value [1]?
**A.** 29%

**Q.** What about the “lipase activity, T0” value [1] of the same compound?
**A.** 100%

**Q.** What about the “lipase activity, 3 d” value [2] of the same compound?
**A.** 92%

**Q.** What about the “lipase activity, 7 d” value [2] of the same compound?
**A.** 78%

**Q.** What about the “lipase activity, 14 d” value [2] of the same compound?
**A.** 70%

**Q.** And the “lipase activity, 21 d” value [2]?
**A.** 51%

**Q.** What about the “lipase activity, 28 d” value [2] of the same compound?
**A.** 39%

**Q.** What about the “lipase activity, 35 d” value [2] of the same compound?
**A.** 30%

**Q.** What about the “lipase activity, T0” value [2] of the same compound?
**A.** 102%

**Q.** And the “lipase activity, 3 d” value [3]?
**A.** 95%

**Q.** What about the “lipase activity, 7 d” value [3] of the same compound?
**A.** 82%

**Q.** And the “lipase activity, 14 d” value [3]?
**A.** 70%

**Q.** And the “lipase activity, 21 d” value [3]?
**A.** 58%

**Q.** What about the “lipase activity, 28 d” value [3] of the same compound?
**A.** 43%

**Q.** And the “lipase activity, 35 d” value [3]?
**A.** 36%

**Q.** What about the “lipase activity, T0” value [3] of the same compound?
**A.** 97%

**Q.** And the “lipase activity, 3 d” value [4]?
**A.** 93%

**Q.** What about the “lipase activity, 7 d” value [4] of the same compound?
**A.** 86%

**Q.** What about the “lipase activity, 14 d” value [4] of the same compound?
**A.** 74%

**Q.** What about the “lipase activity, 21 d” value [4] of the same compound?
**A.** 63%

**Q.** What about the “lipase activity, 28 d” value [4] of the same compound?
**A.** 52%

**Q.** What about the “lipase activity, 35 d” value [4] of the same compound?
**A.** 43%

**Q.** What about the “lipase activity, T0” value [4] of the same compound?
**A.** 98%

**Q.** Which results are given for O=C([O-])CC(O)(CC(=O)[O-])C(=O)[O-].[Na+].[Na+].[Na+] [B.2, citric acid trisodiumsalt, reference compound]?
**A.** lipase activity, 3 d [1]: 90%; lipase activity, 7 d [1]: 81%; lipase activity, 14 d [1]: 68%; lipase activity, 21 d [1]: 57%; lipase activity, 28 d [1]: 47%; lipase activity, 35 d [1]: 31%; lipase activity, T0 [1]: 97%; lipase activity, 3 d [5]: 95%; lipase activity, 7 d [5]: 82%; lipase activity, 14 d [5]: 63%; lipase activity, 21 d [5]: 56%; lipase activity, 28 d [5]: 41%; lipase activity, 35 d [5]: 34%; lipase activity, T0 [5]: 98%; lipase activity, 3 d [2]: 94%; lipase activity, 7 d [2]: 80%; lipase activity, 14 d [2]: 69%; lipase activity, 21 d [2]: 53%; lipase activity, 28 d [2]: 44%; lipase activity, 35 d [2]: 37%; lipase activity, T0 [2]: 101%; lipase activity, 3 d [3]: 90%; lipase activity, 7 d [3]: 81%; lipase activity, 14 d [3]: 68%; lipase activity, 21 d [3]: 55%; lipase activity, 28 d [3]: 40%; lipase activity, 35 d [3]: 34%; lipase activity, T0 [3]: 96%

**Q.** What does the source list for CCOC(=O)C(=O)OCC [B.3, diethyloxalate, reference compound]?
**A.** lipase activity, 3 d [1]: 90%; lipase activity, 7 d [1]: 80%; lipase activity, 14 d [1]: 70%; lipase activity, 21 d [1]: 54%; lipase activity, 28 d [1]: 45%; lipase activity, 35 d [1]: 37%; lipase activity, T0 [1]: 97%; lipase activity, 3 d [2]: 94%; lipase activity, 7 d [2]: 79%; lipase activity, 14 d [2]: 69%; lipase activity, 21 d [2]: 50%; lipase activity, 28 d [2]: 40%; lipase activity, 35 d [2]: 32%; lipase activity, T0 [2]: 98%; lipase activity, 3 d [3]: 93%; lipase activity, 7 d [3]: 86%; lipase activity, 14 d [3]: 74%; lipase activity, 21 d [3]: 63%; lipase activity, 28 d [3]: 51%; lipase activity, 35 d [3]: 46%; lipase activity, T0 [3]: 98%; lipase activity, 3 d [4]: 92%; lipase activity, 7 d [4]: 85%; lipase activity, 14 d [4]: 71%; lipase activity, 21 d [4]: 65%; lipase activity, 28 d [4]: 56%; lipase activity, 35 d [4]: 46%; lipase activity, T0 [4]: 97%

**Q.** How did the “lipase activity, 3 d” value [1] turn out when CC(=O)OCC(COC(C)=O)OC(C)=O [B.4, glyceroltriacetate (triacetine), reference compound] was run?
**A.** 91%

**Q.** What about the “lipase activity, 7 d” value [1] of the same compound?
**A.** 84%

**Q.** And the “lipase activity, 14 d” value [1]?
**A.** 72%

**Q.** And the “lipase activity, 21 d” value [1]?
**A.** 56%

**Q.** And the “lipase activity, 28 d” value [1]?
**A.** 45%

**Q.** What about the “lipase activity, 35 d” value [1] of the same compound?
**A.** 39%

**Q.** And the “lipase activity, T0” value [1]?
**A.** 98%

**Q.** What about the “lipase activity, 3 d” value [5] of the same compound?
**A.** 87%

**Q.** What about the “lipase activity, 7 d” value [5] of the same compound?
**A.** 77%

**Q.** And the “lipase activity, 14 d” value [5]?
**A.** 67%

**Q.** And the “lipase activity, 21 d” value [5]?
**A.** 56%

**Q.** And the “lipase activity, 28 d” value [5]?
**A.** 42%

**Q.** What about the “lipase activity, 35 d” value [5] of the same compound?
**A.** 35%

**Q.** And the “lipase activity, T0” value [5]?
**A.** 95%

**Q.** What about the “lipase activity, 3 d” value [3] of the same compound?
**A.** 91%

**Q.** What about the “lipase activity, 7 d” value [3] of the same compound?
**A.** 82%

**Q.** And the “lipase activity, 14 d” value [3]?
**A.** 73%

**Q.** And the “lipase activity, 21 d” value [3]?
**A.** 59%

**Q.** What about the “lipase activity, 28 d” value [3] of the same compound?
**A.** 50%

**Q.** And the “lipase activity, 35 d” value [3]?
**A.** 46%

**Q.** And the “lipase activity, T0” value [3]?
**A.** 97%

**Q.** Which “lipase activity, 3 d” value [1] does the source give for Diethylcitrate [A.7] here?
**A.** 97%

**Q.** And the “lipase activity, 7 d” value [1]?
**A.** 91%

**Q.** What about the “lipase activity, 14 d” value [1] of the same compound?
**A.** 85%

**Q.** What about the “lipase activity, 21 d” value [1] of the same compound?
**A.** 81%

**Q.** What about the “lipase activity, 28 d” value [1] of the same compound?
**A.** 76%

**Q.** What about the “lipase activity, 35 d” value [1] of the same compound?
**A.** 69%

**Q.** What about the “lipase activity, T0” value [1] of the same compound?
**A.** 99%

**Q.** What about the “lipase activity, 3 d” value [5] of the same compound?
**A.** 94%

**Q.** And the “lipase activity, 7 d” value [5]?
**A.** 91%

**Q.** What about the “lipase activity, 14 d” value [5] of the same compound?
**A.** 86%

**Q.** And the “lipase activity, 21 d” value [5]?
**A.** 82%

**Q.** And the “lipase activity, 28 d” value [5]?
**A.** 77%

**Q.** What about the “lipase activity, 35 d” value [5] of the same compound?
**A.** 72%

**Q.** What about the “lipase activity, T0” value [5] of the same compound?
**A.** 99%

**Q.** And the “lipase activity, 3 d” value [2]?
**A.** 96%

**Q.** What about the “lipase activity, 7 d” value [2] of the same compound?
**A.** 93%

**Q.** And the “lipase activity, 14 d” value [2]?
**A.** 87%

**Q.** What about the “lipase activity, 21 d” value [2] of the same compound?
**A.** 83%

**Q.** And the “lipase activity, 28 d” value [2]?
**A.** 77%

**Q.** And the “lipase activity, 35 d” value [2]?
**A.** 72%

**Q.** And the “lipase activity, T0” value [2]?
**A.** 97%

**Q.** And the “lipase activity, 3 d” value [3]?
**A.** 95%

**Q.** And the “lipase activity, 7 d” value [3]?
**A.** 93%

**Q.** What about the “lipase activity, 14 d” value [3] of the same compound?
**A.** 88%

**Q.** What about the “lipase activity, 21 d” value [3] of the same compound?
**A.** 85%

**Q.** What about the “lipase activity, 28 d” value [3] of the same compound?
**A.** 80%

**Q.** And the “lipase activity, 35 d” value [3]?
**A.** 74%

**Q.** What about the “lipase activity, T0” value [3] of the same compound?
**A.** 97%
